Assay results taken from patent publication US20160046618A1, “Cyclopropyl Fused Thiazin-2-Amine Compounds as Beta-Secretase Inhibitors and Methods of Use” (AMGEN INC., priority 2014, published 2016).
Like-named read-outs stand apart in the source and are kept apart here.

Experiments:
human recombinant BACE2 = human recombinant BACE2 (Homo sapiens (Human), UniProt Q9Y5Z0); test: In vitro enzymatic BACE2 FRET assay; type: biochemical; settings: BACE2 FRET enzyme assay; read-out: IC50 IP (μM) BACE2 enzyme
Procedure, shortened: (§1)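 Tris addition raises the pH to neutral to stop the reaction before fluorescence is measured at 590 nm emission with 488 nm excitation.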

[1] = test system: Aβ40 in conditioned medium of cells stably expressing Amyloid Precursor Protein (APP); test: In vitro BACE-1 cell-based assay (Aβ40 sandwich ELISA); settings: read-out: IC50 IP (μM) BACE1 cell
Procedure, shortened: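 Read-out: time-resolved fluorescence (Streptavidin-Europium) of Aβ40 captured by pAb40 and detected with biotinylated 6E10 from supernatants of APP-stable cells. Cells were exposed to compound for 24 h, 10-point dose response, top dose 100 μM or 10 μM, 0.1% DMSO. IC50 fitted to percent of control.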

Recombinant Cat D = Recombinant Cat D (Homo sapiens (Human), UniProt P07339); test: In vitro enzymatic Cathepsin D (Cat D) FRET assay; type: biochemical; settings: Cathepsin D FRET enzyme assay; read-out: IC50 IP (μM) CatD
Procedure, shortened: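 Human Cat D expressed in CHO cells was incubated for one hour in 0.05 M citrate pH 3.5, 5 mM CHAPS, 10% DMSO final, with 20 nM quenched FRET peptide substrate. Reactions were stopped with Tris buffer raising pH to neutrality. Cleavage was read as fluorescence at excitation 500 nm, emission 580 nm.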

Aβ 40 in rat brain = test: In vivo inhibition of beta-secretase: Aβ40 reduction in rat brain; settings: after 4 h
Source text: (§2) In Vivo Inhibition of Beta-Secretase
Several animal models, including mouse, rat, dog, and monkey, may be used to screen for inhibition of beta-secretase activity in vivo following administration of a test compound sample. Animals used in this invention can be wild type, transgenic, or gene knockout animals. […] One to twenty-four hours following the administration of compound, animals are sacrificed, and brains as well as cerebrospinal fluid (CSF) and plasma are removed for analysis of A-beta levels and drug or test compound concentrations (Dovey et al., 2001, Journal of Neurochemistry, 76,173-181) Beginning at time 0, animals are administered by oral gavage, or other means of delivery such as intravenous injection, an inhibitory test compound of up to 100 mg/kg in a standard, conventional formulation, such as 2% hydroxypropyl methylcellulose, 1% Tween80. A separate group of animals receive 2% hydroxypropyl methylcellulose, 1% Tween80 alone, containing no test compound, and serve as a vehicle-control group. At the end of the test period, animals are sacrificed and brain tissues, plasma or cerebrospinal fluid are collected. […] Homogenates are centrifuged at 355,000 g, 4° C. for 30 minutes. CSF or brain supernatants are then analyzed for the presence of A-beta peptide by specific sandwich ELISA assays based on ECL (Electrochemiluminescence) technology. For example, rat Abeta40 is measured using biotinylated-4G8 (Signet) as a capture antibody and Fab40 (an in-house antibody specific to the C-terminal of Abeta40) as a detection antibody.
(§3) Actual vehicles used: Oral: 2% HPMC, 1% Tween80, pH 2.2

Aβ 40 in rat CSF = test: In vivo inhibition of beta-secretase: Aβ40 reduction in rat CSF; settings: after 4 h
Source text: as §2
Several animal models, including mouse, rat, dog, and monkey, may be used to screen for inhibition of beta-secretase activity in vivo following administration of a test compound sample. Animals used in this invention can be wild type, transgenic, or gene knockout animals. For example, the Tg2576 mouse model, prepared and conducted as described in Hsiao et al., 1996, Science 274, 99-102, and other non-transgenic or gene knockout animals are useful to analyze in vivo inhibition of Amyloid beta peptide (Abeta) production in the presence of inhibitory test compounds. Generally, 2 to 18 month old Tg2576 mice, gene knockout mice or non-transgenic animals are administered test compounds formulated in vehicles, such as cyclodextran, phosphate buffers, hydroxypropyl methylcellulose or other suitable vehicles. One to twenty-four hours following the administration of compound, animals are sacrificed, and brains as well as cerebrospinal fluid (CSF) and plasma are removed for analysis of A-beta levels and drug or test compound concentrations (Dovey et al., 2001, Journal of Neurochemistry, 76,173-181) Beginning at time 0, animals are administered by oral gavage, or other means of delivery such as intravenous injection, an inhibitory test compound of up to 100 mg/kg in a standard, conventional formulation, such as 2% hydroxypropyl methylcellulose, 1% Tween80. A separate group of animals receive 2% hydroxypropyl methylcellulose, 1% Tween80 alone, containing no test compound, and serve as a vehicle-control group. At the end of the test period, animals are sacrificed and brain tissues, plasma or cerebrospinal fluid are collected. […] Homogenates are centrifuged at 355,000 g, 4° C. for 30 minutes. CSF or brain supernatants are then analyzed for the presence of A-beta peptide by specific sandwich ELISA assays based on ECL (Electrochemiluminescence) technology. For example, rat Abeta40 is measured using biotinylated-4G8 (Signet) as a capture antibody and Fab40 (an in-house antibody specific to the C-terminal of Abeta40) as a detection antibody. For example, 4 hours after administration of 30 mg/kg oral dose of the test compound in 2% hydroxypropyl methylcellulose, 1% Tween80 (pH2.2) to 200 g male Sprague Dawley rats, amyloid beta peptide levels are measured for reduction by X % and Y % in cerebrospinal fluid and brain, respectively, when compared to the levels measured in the vehicle-treated or control mice.
as §3
The compounds of the invention may be shown to reduce the formation and/or deposition of amyloid beta peptide in the cerebrospinal fluid (CSF) as well as in the brain of a mouse or rat at either 3 mpk, 10 mpk or 30 mpk (mpk=mg compound per kg weight of the animal) dosing concentrations after 4 h.

human recombinant BACE1 = human recombinant BACE1 (Homo sapiens (Human), UniProt P56817); test: In vitro enzymatic BACE1 FRET assay; type: biochemical; settings: BACE1 FRET enzyme assay; read-out: IC50 IP (μM) BACE1 enzyme
Procedure, shortened: as §1

Recombinant Cat D, sequence (P07339 65-412): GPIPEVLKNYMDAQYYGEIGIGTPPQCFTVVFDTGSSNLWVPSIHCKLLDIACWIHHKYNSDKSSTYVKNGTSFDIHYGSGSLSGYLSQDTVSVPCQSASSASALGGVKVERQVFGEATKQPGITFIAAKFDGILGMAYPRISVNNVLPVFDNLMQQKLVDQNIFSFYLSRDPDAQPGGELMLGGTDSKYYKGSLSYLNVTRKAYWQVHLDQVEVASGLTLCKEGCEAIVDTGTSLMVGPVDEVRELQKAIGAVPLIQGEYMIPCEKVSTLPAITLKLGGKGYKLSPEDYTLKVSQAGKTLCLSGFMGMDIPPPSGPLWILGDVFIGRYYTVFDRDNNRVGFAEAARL
human recombinant BACE1, sequence (P56817 46-501): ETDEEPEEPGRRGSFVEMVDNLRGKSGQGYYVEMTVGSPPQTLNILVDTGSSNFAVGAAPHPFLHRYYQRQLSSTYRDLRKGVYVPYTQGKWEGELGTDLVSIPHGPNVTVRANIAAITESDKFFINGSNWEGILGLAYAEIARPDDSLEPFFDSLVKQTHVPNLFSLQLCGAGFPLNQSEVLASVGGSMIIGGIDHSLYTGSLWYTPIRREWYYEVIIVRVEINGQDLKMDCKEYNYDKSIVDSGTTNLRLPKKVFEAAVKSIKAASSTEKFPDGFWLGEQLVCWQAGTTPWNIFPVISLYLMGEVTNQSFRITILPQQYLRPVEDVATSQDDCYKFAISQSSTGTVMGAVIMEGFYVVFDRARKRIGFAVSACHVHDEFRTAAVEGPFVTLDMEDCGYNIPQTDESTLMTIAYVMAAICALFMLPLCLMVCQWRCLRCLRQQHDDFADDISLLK
human recombinant BACE2, sequence (Q9Y5Z0 63-518): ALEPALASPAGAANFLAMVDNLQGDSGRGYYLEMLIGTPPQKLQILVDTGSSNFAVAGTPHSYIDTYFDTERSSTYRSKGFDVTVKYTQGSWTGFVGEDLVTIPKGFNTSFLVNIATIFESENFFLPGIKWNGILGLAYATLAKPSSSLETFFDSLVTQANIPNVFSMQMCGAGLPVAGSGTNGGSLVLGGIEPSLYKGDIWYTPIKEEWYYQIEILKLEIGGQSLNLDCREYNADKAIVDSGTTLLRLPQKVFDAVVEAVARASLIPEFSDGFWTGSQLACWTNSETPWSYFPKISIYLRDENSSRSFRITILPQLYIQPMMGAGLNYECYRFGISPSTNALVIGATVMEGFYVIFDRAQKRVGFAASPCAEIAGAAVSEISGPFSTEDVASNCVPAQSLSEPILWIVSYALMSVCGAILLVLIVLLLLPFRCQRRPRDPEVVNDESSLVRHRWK

| SMILES | IC50 ([1]; BACE1 cell-based assay) [µM] | IC50 (Recombinant Cat D) [µM] | % Aβ 40 reduction in rat brain at 10 mpk (Aβ 40 in rat brain) [%] | % Aβ 40 reduction in rat CSF at 10 mpk (Aβ 40 in rat CSF) [%] | other results |
| --- | --- | --- | --- | --- | --- |
| C[C@]1(c2cc(NC(=O)c3ccc(Cl)cn3)cc(F)c2F)N=C(N)S[C@H]2C[C@H]21 [Example 6, N-(3-((1S,5S,6S)-3-amino-5-methyl-2-thia-4-azabicyclo[4.1.0]hept-3-en-5-yl)-4,5-difluorophenyl)-5-chloro-2-pyridinec arboxamide] | – | – | – | 78 | – |
| C[C@]1(c2cc(NC(=O)c3ccc(Cl)cn3)cc(F)c2F)N=C(N)S[C@@]2(CF)C[C@H]21 [Example 12, N-(3-((1S,5S,6S)-3-amino-1-(fluoromethyl)-5-methyl-2-thia-4-azabicyclo[4.1.0]hept-3-en-5-yl)-4,5-difluorophenyl)-5-chloropicolinamide] | – | – | – | 75 | – |
| C#CCOc1cnc(C(=O)Nc2cc(F)c(F)c([C@@]3(C)N=C(N)S[C@@]4(C(F)F)C[C@@H]34)c2)cn1 [Example 807, N-(3-((1S,5S,6S)-3-amino-1-(difluoromethyl)-5-methyl-2-thia-4-azabicyclo[4.1.0]hept-3-en-5-yl)-4,5-difluorophenyl)-5-(2-propyn-1-yloxy)-2-pyrazinecarboxamide] | – | – | – | – | % Aβ 40 reduction in rat CSF (3 mpk) (Aβ 40 in rat CSF): 80 (3 mpk) % |
| C#CCOc1cnc(C(=O)Nc2cc(F)c(F)c([C@@]3(C)N=C(N)S[C@@]4(CF)C[C@H]43)c2)cn1 [Example 810, N-(3-((1S,5S,6S)-3-amino-1-(fluoromethyl)-5-methyl-2-thia-4-azabicyclo[4.1.0]hept-3-en-5-yl)-4,5-difluorophenyl)-5-(prop-2-yn-1-yloxy)pyrazine-2-carboxamide] | – | – | – | – | % Aβ 40 reduction in rat brain (3 mpk) (Aβ 40 in rat brain): 74 (3 mpk) %; % Aβ 40 reduction in rat CSF (3 mpk) (Aβ 40 in rat CSF): 79 (3 mpk) % |
| COC[C@]12C[C@H]1[C@@](C)(c1cc(NC(=O)c3cnc(OCC(F)(F)F)cn3)cc(F)c1F)N=C(N)S2 [Example 815, N-(3-((1S,5S,6S)-3-amino-1-(methoxymethyl)-5-methyl-2-thia-4-azabicyclo[4.1.0]hept-3-en-5-yl)-4,5-difluorophenyl)-5-(2,2,2-trifluoroethoxy)-2-pyrazinecarboxamide] | – | – | – | 50 | – |
| [2H]C([2H])([2H])OC[C@]12C[C@H]1[C@@](C)(c1cc(NC(=O)c3cnc(OCC#C)cn3)cc(F)c1F)N=C(N)S2 [Example 969, N-(3-((1S,5S,6S)-3-amino-5-methyl-1-(((trideuterium)methyloxy)methyl)-2-thia-4-azabicyclo[4.1.0]hept-3-en-5-yl)-4,5-difluorophenyl)-5-(2-propyn-1-yloxy)-2-pyrazinecarboxamide] | – | – | – | – | IC50 [1]: 0.000687 µM; % Aβ 40 reduction in rat brain (3 mpk) (Aβ 40 in rat brain): 79 (3 mpk) %; % Aβ 40 reduction in rat CSF (3 mpk) (Aβ 40 in rat CSF): 79 (3 mpk) % |

Second part, led by results:

| IC50 ([1]; BACE1 cell-based assay) [µM] | IC50 (Recombinant Cat D) [µM] | SMILES | % Aβ 40 reduction in rat brain at 10 mpk (Aβ 40 in rat brain) [%] | % Aβ 40 reduction in rat CSF at 10 mpk (Aβ 40 in rat CSF) [%] | other results |
| --- | --- | --- | --- | --- | --- |
| 0.0144 | > 133 | N#Cc1cnc2c(Nc3ccc(F)c([C@@]4(CF)N=C(N)S[C@H]5CC54)c3)nccc2c1 (stereo in doubt) [Example 38, 8-((3-((1S,5S,6S)-3-amino-5-(fluoromethyl)-2-thia-4-azabicyclo[4.1.0]hept-3-en-5-yl)-4-fluorophenyl)amino)-1,7-naphthyridine-3-carbonitrile] | 44 | 66 | IC50 (human recombinant BACE2): 0.00728 µM; IC50 (human recombinant BACE1): 0.0157 µM |
| 0.0164 | 1840 | COc1cnc(C(=O)Nc2ccc(F)c([C@@]3(CF)N=C(N)S[C@H]4C[C@H]43)c2)cn1 [Example 4, N-(3-((1S,5S,6S)-3-amino-5-(fluoromethyl)-2-thia-4-azabicyclo[4.1.0]hept-3-en-5-yl)-4-fluorophenyl)-5-methoxy-2-pyrazinecarboxamide] | 18 | 40 | IC50 (human recombinant BACE1): 0.0696 µM |
| 0.0213 | > 133 | N#Cc1cnc2c(Nc3cc(F)c(F)c([C@@]4(CF)N=C(N)S[C@H]5C[C@H]54)c3)nccc2c1 [Example 26, 8-((3-((1S,5S,6S)-3-amino-5-(fluoromethyl)-2-thia-4-azabicyclo[4.1.0]hept-3-en-5-yl)-4,5-difluorophenyl)amino)-1,7-naphthyridine-3-carbonitrile] | 34 | 38 | IC50 (human recombinant BACE1): 0.0107 µM |
| 0.0204 | 466 | N#Cc1cnc2c(Nc3cc(F)c(F)c([C@@]4(CF)N=C(N)S[C@H]5C[C@H]54)c3)ncnc2c1 [Example 28, 4-((3-((1S,5S,6S)-3-amino-5-(fluoromethyl)-2-thia-4-azabicyclo[4.1.0]hept-3-en-5-yl)-4,5-difluorophenyl)amino)pyrido[3,2-d]pyrimidine-7-carbonitrile] | 26 | 42 | IC50 (human recombinant BACE2): 0.0497 µM |
| 0.00767 | 250 | C[C@]1(c2cc(Nc3ncnc4cc(C#N)cnc34)cc(F)c2F)N=C(N)S[C@H]2C[C@H]21 [Example 36, 4-((3-((1S,5S,6S)-3-amino-5-methyl-2-thia-4-azabicyclo[4.1.0]hept-3-en-5-yl)-4,5-difluorophenyl)amino)pyrido[3,2-d]pyrimidine-7-carbonitrile] | 46 | 74 | IC50 (human recombinant BACE2): 0.0562 µM |
| 0.024 | – | NC1=N[C@](CF)(c2cc(Nc3ncnc4cc(Cl)cnc34)ccc2F)[C@H]2C[C@@H]2S1 [Example 39, N-(3-((1S,5S,6S)-3-amino-5-(fluoromethyl)-2-thia-4-azabicyclo[4.1.0]hept-3-en-5-yl)-4-fluorophenyl)-7-chloropyrido[3,2-d]pyrimidin-amine] | 23 | 50 | – |
| 0.00082 | – | C#CCOc1cnc(C(=O)Nc2cc(F)c(F)c([C@@]3(C)N=C(N)S[C@@]4(COC)C[C@H]43)c2)cn1 [Example 72, N-(3-((1S,5S,6S)-3-amino-1-(methoxymethyl)-5-methyl-2-thia-4-azabicyclo[4.1.0]hept-3-en-5-yl)-4,5-difluorophenyl)-5-(2-propyn-1-yloxy)-2-pyrazinecarboxamide] | – | 85 | – |
